Test results taken from patent US20230190697A1, “METHODS FOR TREATING VIRAL INFECTIONS WITH NAFAMOSTAT” (priority 2020, published 2023).
Several values for one entry are separate records, joined by “and”; a condition that tells them apart may be missing. Identical values can stand only once. Entries after “also recorded” stand apart in the source; their conditions may differ. Like-named read-outs stand apart in the source and are kept apart here.

What was measured:
[1] = Pharmacokinetics of nafamostat in male rats (whole blood, LC/MS/MS); format: in vivo
Procedure: Example 1: Pharmacokinetic Studies. The pharmacokinetics of nafamostat were evaluated in male rats following an intravenous dose of 1 mg/kg or an oral dose of 9 mg/kg or 10 mg/kg. Nafamostat whole blood concentrations were determined by LC/MS/MS. Following intravenous dosing, nafamostat appeared in the blood of rats, with average (± SD) maximum whole blood concentrations (189 ± 54 ng/mL) being reached at the first measured time point (0.0830 hours) in all animals. […] The AUC0-t was 81.8 ± 29 ng̬·h/mL. The pharmacokinetic parameters were generated using a standard, non-compartmental model. Note that the half-life reported in this section is the terminal half-life and the alpha phase half-life is much shorter (estimated to be about 3 minutes).
After oral dosing, nafamostat appeared in the blood for the majority of the rats, with the whole blood concentrations being low and transient. The average (± SD) maximum plasma concentrations were 6.40 ± 6.2 ng/mL and 6.09 ± 3.6 ng/mL for the 9 mg/kg and 10 mg/kg doses, respectively, being reached between 0.250 hours and 0.500 hours. Due to the transient whole blood concentration-time profiles, the terminal t½ could not be calculated in the majority of the subjects but is approximated to be about 3 hours. The AUC0-t was 8.80 ng·h/mL (n=1) and 12.6 ± 11 ng·h/mL (n=3) for the two doses, respectively.

[2] = tested on: healthy male and female subjects; assay: Safety and tolerability (adverse events) of oral nafamostat mesylate in healthy subjects; format: in vivo, human
Procedure: (§1) Part 1: Single Ascending Dose Study. Male and female subjects aged 18 - 70 were administered a single dose of 50 mg nafamostat mesylate on day 1, 100 mg nafamostat mesylate on day 3 or 4, and 200 mg nafamostat mesylate on day 5, 6, or 7. Nafamostat mesylate was administered in the form of an oral solution. Blood samples were obtained at pre-dose (0 hr.) and at 0.5, 1, 2, 3, 4, 6, 8, 12, and 24 hours after receiving the nafamostat mesylate oral solution.
Part 2: Multiple Ascending Dose Study. Subjects were divided into 2 cohorts. Cohort 1 received an oral solution of 100 mg/mL nafamostat mesylate twice a day for 5 days with pharmacokinetic evaluations on each day. Blood samples were obtained at pre-dose (0 hr.) and at 0.5, 1, 2, 3, 4, 6, 8, 12, and 24 hours after receiving the nafamostat mesylate oral solution as well as after the first dose on Day 5. Safety evaluations continued for 48 hours after the last dose. After review and evidence of safety, Cohort 2 received an oral solution of 200 mg/mL nafamostat mesylate twice a day for 5 days with pharmacokinetic evaluations on each day. Blood samples were obtained at pre-dose (0 hr.) and at 0.5, 1, 2, 3, 4, 6, 8, 12, and 24 hours after receiving the first dose of nafamostat mesylate oral solution as well as after the first dose on Day 5. Safety evaluations continued for 48 hours after the last dose.
(§2) Part 3: Single Fixed Dose Administered Twice Daily for 5 Days. Six subjects, different than the subjects from Parts 1 and 2, received an oral solution of 200 mg/mL nafamostat mesylate twice a day for 5 days. Blood samples were obtained at pre-dose (0 hr.) and at 0.5, 1, 2, 3, 4, 6, and 8 hours after the first dose on Day 1 and again after the first dose on Day 5.
Part 4: Single Ascending Dose Study. Three subjects were administered a single dose of an oral solution of 400 mg/mL nafamostat mesylate. After review and evidence of safety, a second set of three subjects received a single dose of an oral solution of 600 mg/mL nafamostat mesylate. Blood samples were obtained for pharmacokinetic analysis at pre-dose (0 hr.) and at 0.25, 0.5, 0.75, 1, 1.5, 2, 2.5, 3, 4, 6, and 8 hours after receiving the nafamostat mesylate dose.
Evaluations of subjects included incidence and severity of adverse events (AEs), vital signs (pulse rate, blood pressure, respiratory rate), 12-lead electrocardiogram, electrocardiogram telemetry or MCOT cardiac patch, continuous pulse oximetry, clinical laboratory tests (CBC-diff, complete metabolic panel including LFTs, PT, PTT), physical examination.

[3] = Pharmacokinetics of oral nafamostat mesylate solution in healthy male and female subjects; format: in vivo, human
Procedure: as §1, with “Blood samples were obtained at pre-dose (0 hr.) and at 0.5, 1, 2, 3, 4, 6, 8, 12, and 24 hours after receiving the nafamostat mesylate oral solution.” left out
Part 2: Multiple Ascending Dose Study. Subjects were divided into 2 cohorts. Cohort 1 received an oral solution of 100 mg/mL nafamostat mesylate twice a day for 5 days with pharmacokinetic evaluations on each day. […] Safety evaluations continued for 48 hours after the last dose. After review and evidence of safety, Cohort 2 received an oral solution of 200 mg/mL nafamostat mesylate twice a day for 5 days with pharmacokinetic evaluations on each day. […] Safety evaluations continued for 48 hours after the last dose.
as §2, with “5. […]” for “5.”
Oral solutions received by each subject were prepared by dissolving nafamostat mesylate in about 100 mL of EMETROL®/water and provided at a volume to deliver the indicated dosage. There was no placebo formulation.
Nafamostat pharmacokinetics was evaluated at the 200 mg dose levels.

hERG K+ channel = hERG K+ channel (Homo sapiens, UniProt Q12809); assay: cell-based
Procedure: Effects of nafamostat in an hERG assay: In an in vitro non-GLP screening study, effects of nafamostat on the hERG K^+ channel currents were evaluated in voltage-clamped human embryonic kidney cells at room temperature. […] A full ICH-Compliant hERG study and in vivo cardiovascular safety pharmacology study is be performed as part of the IND-enabling program.

[4] = tested on: S. typhimurium strains TA98, TA100, TA1535, and TA97a and Escherichia coli strain WP2uvrA76; assay: Bacterial Reverse Mutation (Ames) Screening Assay; format: cell-based; conditions: with or without S9, up to 25 mg/mL
Procedure: Bacterial Reverse Mutation (Ames) Screening Assay: This in vitro non-GLP study evaluated the cytotoxic and mutagenic activity of nafamostat in S. typhimurium strains TA98, TA100, TA1535, and TA97a and in the Escherichia coli (E. coli) strain WP2uvrA76. Two independent assays were conducted using the plate incorporation method with and without S9 metabolic activation. The highest concentration tested was 25 mg/mL. The vehicle control, sterile saline, was tested under the same conditions.

[5] = human, oral, 200 mg dose levels

Sequence of hERG K+ channel (Q12809 whole entry): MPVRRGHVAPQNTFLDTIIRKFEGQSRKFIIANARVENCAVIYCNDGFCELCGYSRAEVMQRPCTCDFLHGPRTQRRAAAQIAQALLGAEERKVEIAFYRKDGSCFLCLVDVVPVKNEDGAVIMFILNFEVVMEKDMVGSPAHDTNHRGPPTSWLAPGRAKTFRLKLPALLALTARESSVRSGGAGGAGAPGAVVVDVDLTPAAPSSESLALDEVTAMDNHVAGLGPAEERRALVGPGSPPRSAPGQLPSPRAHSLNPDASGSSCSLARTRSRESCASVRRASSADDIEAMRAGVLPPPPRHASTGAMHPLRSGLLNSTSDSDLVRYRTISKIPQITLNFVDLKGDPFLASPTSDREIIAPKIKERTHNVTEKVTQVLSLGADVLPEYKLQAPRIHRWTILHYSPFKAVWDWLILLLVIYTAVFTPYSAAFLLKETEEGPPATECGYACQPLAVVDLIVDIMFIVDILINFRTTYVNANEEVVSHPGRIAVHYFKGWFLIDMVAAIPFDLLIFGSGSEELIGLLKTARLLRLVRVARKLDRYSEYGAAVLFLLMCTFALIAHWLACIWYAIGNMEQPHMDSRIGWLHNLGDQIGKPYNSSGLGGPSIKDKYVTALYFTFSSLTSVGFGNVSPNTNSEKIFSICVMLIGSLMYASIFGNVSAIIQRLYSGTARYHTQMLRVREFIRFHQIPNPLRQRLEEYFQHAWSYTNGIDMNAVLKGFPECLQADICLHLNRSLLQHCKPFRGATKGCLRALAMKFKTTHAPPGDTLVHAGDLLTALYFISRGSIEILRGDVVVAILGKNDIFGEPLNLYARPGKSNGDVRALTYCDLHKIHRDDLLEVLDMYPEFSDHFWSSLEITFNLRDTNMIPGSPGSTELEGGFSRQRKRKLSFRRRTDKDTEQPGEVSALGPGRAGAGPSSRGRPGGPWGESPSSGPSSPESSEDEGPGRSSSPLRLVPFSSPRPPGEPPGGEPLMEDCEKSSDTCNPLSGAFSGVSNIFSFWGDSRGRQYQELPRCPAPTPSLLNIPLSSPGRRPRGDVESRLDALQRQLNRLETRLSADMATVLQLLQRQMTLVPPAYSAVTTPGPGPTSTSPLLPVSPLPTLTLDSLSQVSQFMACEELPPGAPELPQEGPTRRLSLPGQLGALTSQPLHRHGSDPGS

SMILES: N=C(N)c1ccc2cc(OC(=O)c3ccc(N=C(N)N)cc3)ccc2c1 [nafamostat]
- average (± SD) maximum whole blood concentration ([1]; male rats, intravenous 1 mg/kg): 189 ± 54 ng/mL
- clearance ([1]; male rats, intravenous 1 mg/kg): high and greater than hepatic blood flow in rats
- time of maximum whole blood concentration (first measured time point) ([1]; male rats, intravenous 1 mg/kg): 0.0830 h
- average (± SD) maximum plasma concentration ([1]; male rats, oral 9 mg/kg): 6.40 ± 6.2 ng/mL
- average (± SD) maximum plasma concentration ([1]; male rats, oral 10 mg/kg): 6.09 ± 3.6 ng/mL
- half-life ([1]; male, rat, whole blood, iv, 1 mg/kg, male rats, intravenous 1 mg/kg, estimated, read-out: alpha phase half-life): ~0.05 h
- half-life ([1]; male, rat, whole blood, iv, 1 mg/kg, male rats, intravenous 1 mg/kg, non-compartmental, read-out: terminal t½ (converted)): 1.84 ± 1.3 h
- half-life ([1]; male, rat, whole blood, po, male rats, oral dosing, approximated, read-out: terminal t½ (converted)): ~3 h
- bioavailability ([1]; male, rat, whole blood, rats, oral vs intravenous, read-out: overall absolute oral bioavailability): 1.16 ± 1.1%
- AUC(0-t) ([1]; rat, whole blood, male rats, intravenous 1 mg/kg): 81.8 ± 29 ng·h/mL
- AUC(0-t) ([1]; rat, whole blood, male rats, oral 9 mg/kg (n=1)): 8.8 ng·h/mL
- AUC(0-t) ([1]; rat, whole blood, male rats, oral 10 mg/kg (n=3)): 12.6 ± 11 ng·h/mL
- adverse events attributable to nafamostat ([2]; human subjects, oral solution): no adverse events that could be attributed to nafamostat reported
- adverse events ([2]; oral, up to 600 mg nafamostat mesylate): no adverse events are observed
- Drug-Related? ([2]; per subject (12-17), adverse event): No
- Adverse Event ([2]; per subject (12-17), oral nafamostat mesylate solution): Intermittent headache; also recorded: Thrush; also recorded: Tonsillitis right; also recorded: Right thigh redness, swelling; also recorded: Nausea; also recorded: Orthostatic tachycardia* *; also recorded: Chest pain (mild, intermittent)
- Severity ([2]; per subject (12-17), severity of adverse event): Mild (4×) and Moderate (3×)
- PK measurements (nafamostat concentration), all except three samples, below LLQ [3, 5]: < 0.1 ng/mL
- nafamostat found in the two outlier samples taken after at least one daily dose [3, 5]: 0.125 ng/mL and 0.101 ng/mL
- nafamostat detected in blood samples ([3]; oral administration): No nafamostat was detected in blood samples
- therapeutically-relevant blood plasma levels ([3]; subjects administered oral nafamostat): Therapeutically-relevant blood plasma levels were not observed
- IC50 (hERG K+ channel): > 50 µM
- mutagenic activity (mean number of revertants per plate) ([4]; any test strain): no positive increases in the mean number of revertants
- cytotoxic activity ([4]; plate incorporation): not cytotoxic
